Experiments:
Format in all cases: cell-based, mouse
[1] = system: active caspase-1 / pro-IL-1β in PECs; assay: Western blot of caspase-1 and pro-IL-1β in PECs; details: for up-regulation of Pro-IL-1β: 6 hours, FIG. 3C
Method: FIGS. 2A-2H illustrate the finding that adenosine mediates increase in IL-1β via the A2A receptor and amplifies signal 1 and signal 2 pathways. FIG. 2A: LPS primed PECs were treated with NECA (10 μM) in the presence or absence of […] different adenosine receptor antagonists for A1 (DPCPX, 10 nM), A2A (ZM 241385, 10 μM), A2B (MRS1706, 10 nM), A3 (MRS1523, 5 μM), or their combinations for 1 hour, and pulsed with ATP for 20 min. FIGS. 2A-2B: A2A receptor specific agonist (CGS21680) and antagonist ZM 241385 increase and block IL-1β production respectively. […] FIG. 2D: PEC's from A2A receptor deficient cells have low IL-1β production, which is not increased by NECA and CGS 21680. FIG. 2E: CGS21680 increases induction of Il1b mRNA expression, and this was decreased in A2A receptor deficient cells. FIG. 2F: Loss of the A2A receptor in macrophages results in much lower levels of Il1b protein A expression in response to LPS. FIG. 2G: CGS21680 and […] increases and decreases production of cleaved caspase-1, respectively. FIG. 2H: The production of cleaved caspase-1 is decreased in A2A receptor deficient macrophages. Data are expressed as the mean±SD from at least three independent experiments Immunoblots shown are representative results from at least three independent experiments. p<0.05 determined by Student's t-test.
FIGS. 3A-3I illustrate the finding that adenosine supersedes LPS induced tolerance and increases IL-1β production by upregulating transcription of pro-IL-1β via cAMP-PKA pathway. PECs were used in all of the following experiments. FIG. 3A: Primed (pri) with LPS (100 ng/ml) for 16 hours followed by stimulation (stim) with LPS (100 ng/ml), or NECA (10 μM) or CGS21680 (10 μM) in the presence or absence of LPS (100 ng/ml) for 6 hours. FIG. 3B: Treated with forskolin for 6 hours as indicated doses with and without LPS priming FIG. 3C: Treated with or without NECA (10 μM), CGS21680 (10 μM) or db-cAMP (200 μM) for 6 hours. FIG. 3D: LPS primed and treated with NECA or CGS21680 in the presence and absence of SQ22536, H89 and PKi. FIG. 3E: Primed with LPS for 16 hours and treated with ATP for 20 min, followed by CGS 21680 in the presence or absence of the adenylyl cyclase and PKA inhibitors SQ22536 and H-89. FIG. 3F: Primed with LPS and treated with or without NECA (10 μM) or db-cAMP (200 μM) for 6 hours. FIG. 3G: Treated with or without CGS21680 (10 μM) for 3 hours, and transcription was stopped by adding […] actinomycin D, and RNA samples collected at indicated times-points. FIG. 3H: LPS primed PECs obtained from wild type or A2AR-cKO mice were stimulated with NECA (10 μM) for 6 hours. The cells were harvested and RNA isolated after each treatment and the gene expression of Il1b and other genes as indicated quantified by real-time PCR using specific primers. FIG. 3I: Primed with LPS for 16 hours and treated with ATP for 20 min, followed by CGS 21680 in the presence or absence of SQ22536 or H-89 Immunoblot analysis of the proIL-1β caspase-1 in cell lysate was performed by specific […] and anti caspase-1 p10 antibodies (FIGS. 3C, 3E-3F, 3I). Data are expressed as the mean±SD from three independent experiments Immunoblots shown are representative results from at least three independent experiments. *p<0.05 determined by Student's t-test.
Liver tissue lysates or PECs were lysed in RIPA buffer (10 mM phosphate buffer pH 7.4, 150 mM NaCl, 1% NP-40, 0.5% sodium deoxycholate, 0.1% SDS) supplemented with complete protease inhibitor cocktail (Roche) and 2 mM dithiothreitol. Lysates were resolved in 4-12% Tris-glycine gradient gels (Invitrogen) and transferred to nitrocellulose (Invitrogen) by electro-blotting. The following antibodies were used: rabbit anti-caspase-1 p10 (SC-514, Santa Cruz), goat anti-mouse IL-1β (BAF401, R&D Systems), Rabbit antimouse HIF-1α (NB100-449, Novus Biologicals, Littleton, Colo.).

[2] = system: IL-1β production in liver Kupffer cells; assay: IL-1β secretion by LPS/ATP-stimulated Kupffer cells; details: LPS and ATP
Method: (§1) FIGS. 6A-6B illustrate the finding that bone marrow macrophages and liver Kupffer cells increase IL-1β in response to adenosine signaling. FIG. 6A: Murine bone marrow derived macrophages (BMDM) were primed with LPS for 16 hours, treated with NECA (10 μM) for 1 hour, and then pulsed with ATP. FIG. 6b: Primary murine liver Kupffer cells were primed with LPS for 16 hours, treated with NECA (10 μM) for 1 hour, and then pulsed with ATP. IL-1β secretion was measured in supernatants 5 hours after pulsing with ATP. Data are expressed as the mean±SD from at least three independent experiments. *p<0.05 determined by Student's t-test.
(§2) C57BL/6 mice were purchased from the National Cancer Institute. ASC−/−, Caspase-1−/−, Nlrp3−/− and P2xr7−/− mice have been described (Rock et al., 2010, Annu Rev Immunol. 28:321-42). A2ora2a flox/flox mice and LysMcre mice were purchased from Jackson Laboratories. HIF-1a flox/flox mice were kindly provided by Dr. Ruslan M Medzhitov (Yale University). 7- to 12-week-old males with a variety of genetic manipulations were used in most experiments. […]
(§3) Primed PECs were both pulsed for 20 min with 5 mM ATP or 10 μM nigericin, and left untreated until culture supernatants were collected. Secretion of IL-1β was determined by enzyme-linked immunoabsorbent assay (ELISA; R&D Systems).

[3] = system: IL-1β production in bone marrow derived macrophages; assay: IL-1β secretion by LPS/ATP-stimulated bone marrow derived macrophages; details: LPS and ATP
Method: as §1, §2, §3

## CCNC(=O)[C@H]1O[C@@H](n2cnc3c(N)nc(NCCc4ccc(CCC(=O)O)cc4)nc32)[C@H](O)[C@@H]1O [CGS21680]
[1]
  up-regulation of Pro-IL-1β: induced up-regulation
[1]; compound alone
  active caspase-1: did not result in detectable active caspase-1
[1]; in response to LPS/ATP
  active (cleaved) caspase-1: increases

## CCNC(=O)[C@H]1O[C@@H](n2cnc3c(N)ncnc32)[C@H](O)[C@@H]1O [NECA, 5′-(N-ethylcarboxamido) adenosine]
[2]
  IL-1β production: significantly increased
[1]
  up-regulation of Pro-IL-1β: induced up-regulation
[3]
  IL-1β production: significantly increased

Reference: US10624917B2, “Compositions and methods useful for treating or preventing liver diseases or disorders, and promoting weight loss” (YALE UNIVERSITY, priority 2014, dated 2020)
